Laboratory results from ChEMBL document CHEMBL1201862, “PubChem BioAssay data set” (2004).
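Assay format: 96-well plates, 48-hour exposure. Abbreviation: GI50, concentration required for 50% inhibition of growth.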 The source made the active and inactive calls. No stated cut-off is given here; in the data, active = GI50 up to about 1.1 µM and inactive = higher.

Experiments:
Experiment in all cases: growth of human tumour cells (NCI), 48 h
[1] = test system: 786-0
[2] = test system: A498
[3] = test system: A549
[4] = test system: ACHN
[5] = test system: BT-549
[6] = test system: CAKI-1
[7] = test system: CCRF-CEM
[8] = test system: COLO 205
[9] = test system: DU-145
[10] = test system: EKVX
[11] = test system: HCC 2998
[12] = test system: HCT-116
[13] = test system: HCT-15
[14] = test system: HL-60
[15] = test system: HOP-62
[16] = test system: HOP-92
[17] = test system: HT-29
[18] = test system: Hs-578T
[19] = test system: IGROV-1
[20] = test system: K562
[21] = test system: KM12
[22] = test system: LOX IMVI
[23] = test system: M14
[24] = test system: MCF7
[25] = test system: MDA-MB-231
[26] = test system: MDA-MB-435
[27] = test system: MDA-N
[28] = test system: MOLT-4
[29] = test system: Malme-3M
[30] = test system: NCI-H226
[31] = test system: NCI-H23
[32] = test system: NCI-H460
[33] = test system: NCI-H522
[34] = test system: NCI/ADR-RES
[35] = test system: OVCAR-3
[36] = test system: OVCAR-4
[37] = test system: OVCAR-5
[38] = test system: OVCAR-8
[39] = test system: PC-3
[40] = test system: RXF 393
[41] = test system: SF-268
[42] = test system: SF-295
[43] = test system: SF-539
[44] = test system: SK-MEL-28
[45] = test system: SK-MEL-2
[46] = test system: SK-MEL-5
[47] = test system: SK-OV-3
[48] = test system: SN12C
[49] = test system: SNB-19
[50] = test system: SNB-75
[51] = test system: SR
[52] = test system: SW-620
[53] = test system: T47D
[54] = test system: TK-10
[55] = test system: U-251
[56] = test system: UACC-257
[57] = test system: UACC-62
[58] = test system: UO-31

CCCCCCCC/C=C\CCCCCCC/C=C1/C[C@](/C=C/C(=O)OC)(CO)OC1=O
GI50 [1]: 0.908 µM (active)
GI50 [2]: 8.67 µM (inactive)
GI50 [3]: 2.37 µM (inactive)
GI50 [4]: 3.11 µM (inactive)
GI50 [5]: 5.02 µM (inactive)
GI50 [6]: 1.29 µM (inactive)
GI50 [7]: 1.01 µM (active)
GI50 [8]: 1.57 µM (inactive)
GI50 [9]: 9.06 µM (inactive)
GI50 [10]: 9.73 µM (inactive)
GI50 [11]: 4.18 µM (inactive)
GI50 [12]: 4.56 µM (inactive)
GI50 [13]: 8.41 µM
GI50 [14]: 1.63 µM (inactive)
GI50 [15]: 3.44 µM (inactive)
GI50 [16]: 2.4 µM (inactive)
GI50 [17]: 7.71 µM (inactive)
GI50 [18]: 0.923 µM (active)
GI50 [19]: 11.5 µM (inactive)
GI50 [20]: 0.561 µM (active)
GI50 [21]: 10.9 µM (inactive)
GI50 [22]: 1.6 µM (inactive)
GI50 [23]: 2.05 µM (inactive)
GI50 [24]: 7.41 µM (inactive)
GI50 [25]: 3.99 µM (inactive)
GI50 [26]: 0.904 µM (active)
GI50 [27]: 0.773 µM (active)
GI50 [28]: 1.3 µM (inactive)
GI50 [29]: 2.15 µM (inactive)
GI50 [30]: 5.14 µM (inactive)
GI50 [31]: 11.2 µM (inactive)
GI50 [32]: 2.15 µM (inactive)
GI50 [33]: 5.6 µM (inactive)
GI50 [34]: 10.4 µM (inactive)
GI50 [35]: 11.6 µM (inactive)
GI50 [36]: 6.58 µM (inactive)
GI50 [37]: 7.46 µM (inactive)
GI50 [38]: 6.65 µM (inactive)
GI50 [39]: 2.58 µM (inactive)
GI50 [40]: 14.2 µM (inactive)
GI50 [41]: 6.9 µM (inactive)
GI50 [42]: 2.29 µM (inactive)
GI50 [43]: 1.01 µM (active)
GI50 [44]: 2.77 µM (inactive)
GI50 [45]: 13.5 µM (inactive)
GI50 [46]: 2.84 µM (inactive)
GI50 [47]: 10.9 µM (inactive)
GI50 [48]: 2.86 µM (inactive)
GI50 [49]: 7.16 µM (inactive)
GI50 [50]: 7.66 µM (inactive)
GI50 [51]: 3.92 µM (inactive)
GI50 [52]: 2.66 µM (inactive)
GI50 [53]: 7.38 µM (inactive)
GI50 [54]: 2.68 µM (inactive)
GI50 [55]: 6.03 µM (inactive)
GI50 [56]: 15.6 µM (inactive)
GI50 [57]: 9.35 µM (inactive)
GI50 [58]: 1.77 µM (inactive)

O=C(CCC=C(S(=O)(=O)c1ccccc1)S(=O)(=O)c1ccccc1)c1ccccc1
GI50 [1]: 3.21 µM (inactive)
GI50 [2]: 17.3 µM (inactive)
GI50 [3]: 17.1 µM (inactive)
GI50 [4]: 5.93 µM (inactive)
GI50 [5]: 5.82 µM (inactive)
GI50 [6]: 5.96 µM (inactive)
GI50 [8]: 7.11 µM (inactive)
GI50 [9]: 5.64 µM (inactive)
GI50 [10]: 12.7 µM (inactive)
GI50 [11]: 7.66 µM (inactive)
GI50 [12]: 3.42 µM (inactive)
GI50 [13]: 5.98 µM
GI50 [14]: 1.86 µM (inactive)
GI50 [15]: 16.8 µM (inactive)
GI50 [16]: 14.5 µM (inactive)
GI50 [17]: 4.91 µM (inactive)
GI50 [18]: 5.22 µM (inactive)
GI50 [19]: 12.3 µM (inactive)
GI50 [20]: 3.73 µM (inactive)
GI50 [21]: 10.9 µM (inactive)
GI50 [22]: 3.26 µM (inactive)
GI50 [23]: 7.1 µM (inactive)
GI50 [24]: 4.47 µM (inactive)
GI50 [25]: 8.04 µM (inactive)
GI50 [26]: 5.25 µM (inactive)
GI50 [27]: 3.69 µM (inactive)
GI50 [28]: 3.98 µM (inactive)
GI50 [29]: 4.45 µM (inactive)
GI50 [30]: 17.4 µM (inactive)
GI50 [32]: 12.9 µM (inactive)
GI50 [33]: 2.76 µM (inactive)
GI50 [34]: 4.06 µM (inactive)
GI50 [35]: 4.27 µM (inactive)
GI50 [36]: 9.33 µM (inactive)
GI50 [37]: 10.7 µM (inactive)
GI50 [38]: 4.58 µM (inactive)
GI50 [39]: 3.64 µM (inactive)
GI50 [40]: 4.18 µM (inactive)
GI50 [41]: 4.59 µM (inactive)
GI50 [42]: 22.5 µM (inactive)
GI50 [43]: 2.96 µM (inactive)
GI50 [44]: 12.1 µM (inactive)
GI50 [45]: 2.38 µM (inactive)
GI50 [46]: 6.97 µM (inactive)
GI50 [47]: 25.4 µM (inactive)
GI50 [48]: 3.26 µM (inactive)
GI50 [49]: 13.6 µM (inactive)
GI50 [50]: 3.61 µM (inactive)
GI50 [51]: 3.01 µM (inactive)
GI50 [52]: 3.4 µM (inactive)
GI50 [53]: 5.43 µM (inactive)
GI50 [54]: 6.38 µM (inactive)
GI50 [55]: 4.03 µM (inactive)
GI50 [56]: 8.91 µM (inactive)
GI50 [57]: 6.92 µM (inactive)
GI50 [58]: 6.15 µM (inactive)
